# Laboratory results reported in US12565680B2, “Cancer neoantigens and their utilities in cancer vaccines and TCR-based cancer immunotherapy” (THE METHODIST HOSPITAL SYSTEM, priority 2018, dated 2026).
# System: 135TIL
# Assay: TCR β CDR3 repertoire analysis
# Design: species or system human
# Settings: TCRβ CDR3 profiling
# Text: To address this issue, PCDHB16 neoantigen-specific CD4^+ T cells were isolated by FACS sorting of PCDHB16-neoantigen T cells from freshly generated bulk T cells after stimulated PCDHB16 neoepitope peptide-pulsed 135EBV-B cells. Using the similar approach, MPG-specific CD8+ T cells were also purified from freshly generated bulk T cells after stimulated MPG neoepitope peptide-pulsed 135EBV-B cells. Genomic DNAs were isolated from the two purified neoantigen-specific T cell populations, as well as the parental bulk T cells, and used as templates for TCR β-chain CDR3 repertoire amplification. […] After the amplicons (from PCDHB16-, MPG-specific T cells and bulk 135TIL) were subjected to deep-sequenced via next-generation sequencing (reads>100,000 per sample), followed by bioinformatic analysis and TCR repertoire alignment. […] The relative TCR sequence frequencies that were identical to those in PCDHB16-specific T cells and MPG-specific T cells were determined in total 135TIL cell population (FIG. 10F). […]
# Cytokine Secretion Assay-Detection Kit (MACS Miltenyi Biotec) was used in cell-surface IFN-γ staining based on a commercial protocol. […] Finally cells were washed with cold buffer and ready for flow cytometric analysis. […]
sequence,measurement,value
"ENSPLGTEFPLNYALDLDVGSNNVQ [PCDHB16, immunodominant MHC-II neoantigen of patient #135]",neoantigen-specific TCRs in the total 135TIL TCRs,36%
